Values of other authors, collected in patent publication US20090281186A1, “Composition and Method for Reducing Stress” (priority 2008, published 2009).

Legend:
[1] = test system: dopamine release from the corpus straitum; serotonin levels in the hippocampus and thalamus; conditions: rats, L-theanine administration
[2] = sixteen individuals; acute administration; 200 mg of L-theanine or 1 mg of alprazolam vs placebo
[3] = 21 patients; 12 grams of inositol per day for four weeks; compared to placebo
[4] = inositol compared with fluvoxamine

| Compound | dopamine release from the corpus straitum [1] | serotonin levels in the hippocampus and thalamus [1] | acute stress responses (psychological and physiological measures) (oral administration, 200 mg of L-theanine) | perception of stress (psychological measures) (twelve individuals, 200 mg of L-theanine before or midway through the task vs placebo) | heart rates during the stress task (twelve individuals, 200 mg of L-theanine vs placebo) | effect on subjects during the experimental relaxed state [2] | severity and frequency of panic attacks [3] | effectiveness in treating panic disorders [4] |
| --- | --- | --- | --- | --- | --- | --- | --- | --- |
| CCNC(=O)CCC(N)C(=O)O [L-theanine, 2-amino-4-(ethylcarbamoyl)butyric acid] | increase dopamine release | increase serotonin levels | acute stress responses were reduced | greater increase in the perception of stress in the placebo condition compared to the other conditions | heart rates were higher in the placebo condition compared to the L-theanine groups | caused a tranquil state |  |  |
| O[C@H]1[C@H](O)[C@@H](O)[C@H](O)[C@@H](O)[C@H]1O [inositol, cis-1,2,3,5-trans-4,6-cyclohexanehexol] |  |  |  |  |  |  | significantly decreased | equally effective |
| Cc1nnc2n1-c1ccc(Cl)cc1C(c1ccccc1)=NC2 [alprazolam, reference compound] |  |  |  |  |  | had no effect |  |  |
